Measurements published in US20060199240A1, “Biosensor and method comprising enzymes immobilized on semiconductors” (Yissum Research Development Company of the Hebrew …, priority 2002, published 2006).

B1: AChE (Homo sapiens) (protein)
chain: EGREDAELLVTVRGGRLRGIRLKTPGGPVSAFLGIPFAEPPMGPRRFLPPEPKQPWSGVVDATTFQSVCYQYVDTLYPGFEGTEMWNPNRELSEDCLYLNVWTPYPRPTSPTPVLVWIYGGGFYSGASSLDVYDGRFLVQAERTVLVSMNYRVGAFGFLALPGSREAPGNVGLLDQRLALQWVQENVAAFGGDPTSVTLFGESAGAASVGMHLLSPPSRGLFHRAVLQSGAPNGPWATVGMGEARRRATQLAHLVGCPPGGTGGNDTELVACLRTRPAQVLVNHEWHVLPQESVFRFSFVPVVDGDFLSDTPEALINAGDFHGLQVLVGVVKDEGSYFLVYGAPGFSKDNESLISRAEFLAGVRVGVPQVSDLAAEAVVLHYTDWLHPEDPARLREALSDVVGDHNVVCPVAQLAGRLAAQGARVYAYVFEHRASTLSWPLWMGVPHGYEIEFIFGIPLDPSRNYTAEEKIFAQRLMRYWANFARTGDPNEPRDPKAPQWPPYTAGAQQYVSLDLRPLEVRRGLRAQACAFWNRFLPKLLSATDTLDEAERQWKAEFHRWSSYMVHWKNQFDHYSKQDRCSDL

Experiments:
[1] = target: acetylcholine esterase (AChE) (Electrophorus electricus, UniProt O42275); type: biochemical
Chain of acetylcholine esterase (AChE) (O42275 24-633): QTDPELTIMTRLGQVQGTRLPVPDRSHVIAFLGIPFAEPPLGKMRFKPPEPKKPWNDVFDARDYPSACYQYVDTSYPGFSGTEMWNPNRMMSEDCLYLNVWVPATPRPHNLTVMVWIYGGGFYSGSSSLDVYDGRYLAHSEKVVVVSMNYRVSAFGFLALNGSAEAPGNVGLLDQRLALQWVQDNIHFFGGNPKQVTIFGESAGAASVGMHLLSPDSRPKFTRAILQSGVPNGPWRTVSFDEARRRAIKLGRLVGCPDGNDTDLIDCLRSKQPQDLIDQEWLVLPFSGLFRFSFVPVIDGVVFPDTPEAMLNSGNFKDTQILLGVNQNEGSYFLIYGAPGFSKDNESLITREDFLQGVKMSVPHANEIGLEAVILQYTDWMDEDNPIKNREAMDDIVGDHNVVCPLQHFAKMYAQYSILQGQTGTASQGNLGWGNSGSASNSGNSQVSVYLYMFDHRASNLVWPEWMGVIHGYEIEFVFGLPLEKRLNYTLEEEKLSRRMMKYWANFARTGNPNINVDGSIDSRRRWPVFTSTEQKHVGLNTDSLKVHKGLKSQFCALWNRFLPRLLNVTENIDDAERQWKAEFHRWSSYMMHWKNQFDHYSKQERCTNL
Experimental: Data were recorded in 0.1 M phosphate buffer, pH=8.1, under argon.
One of the products of the hydrolysis of acetylthiocholine is thiocholine (2), which is an electron donor.
FIG. 2A depicts the photocurrent action spectra resulting in the photoirradiation of the system in the presence of different concentrations of acetylthiocholine. […] Thus, the photocurrent generation in the system is attributed to the AChE catalyzed hydrolysis of acetylthiocholine, (1), to acetate and thiocholine, (2). The latter product acts as donor for the holes generated in the valence band upon excitation of the CdS nanoparticles. Thus, oxidation of thiocholine by the holes eliminates the electron-hole recombination, and thus a steady-state photocurrent is generated.

[2] = substrate: CC(=O)SCC[N+](C)(C)C; test: KM of AChE towards acetylthiocholine in solution; type: biochemical; settings: other: AChE in solution
Experimental: The KM value of the AChE linked to the CdS nanoparticles towards acetylthiocholine, (1), is KM=5 mM. This value is higher than the KM=0.13 mM of ACHE and (1) in solution. The higher KM value for the nanoparticle-immobilized ACHE may be attributed to slight deactivation and structural perturbation of the biocatalyst as a result of surface linkage.

Molecule	effect on photocurrent with increasing concentration [1]	mode of inhibition [1]	reversibility: photocurrent after washing off the inhibitor [1]	Km [2]
C=CC[N+](C)(C)c1ccc(CCC(=O)CCc2ccc([N+](C)(C)CC=C)cc2)cc1 [(3), 1,5-bis(4-allyldimethylammoniumphenyl)pentane-3-one dibromide]	decreases the photocurrent	competitive inhibitor	almost restores the initial photocurrent	
B1				130 µM
